From patent EP3173083A1, “IN VIVO ANTIANGIOGENIC EFFECT OF A PALLADIUM COMPLEX” (Istanbul Universitesi Rektorlugu, priority 2015, dated 2017)

Tested on: CAM
Assay: chorioallantoic membrane (CAM) model of antiangiogenic effect
Format: in vivo, chicken
Settings: for Score: average antiangiogenic score on CAM, evaluated by stereomicroscope 24 hours after pellet application; for antiangiogenic effect on CAM: effect class by scoring system of Table 1, 50 µg/pellet
From the text: In a study performed on the antiangiogenic effect of palladium complex of the invention, a method which is named chorioallantoic membrane (CAM) model is used. The model in question is a method developed by the embryologists more than 50 years ago, has a broad area of usage in embryonic researches (Auerbach, R., Lewis, R., Shinners, B., Kubai, L., Akhtar, N., 2003. Angiogenesis assays: a critical overview. Clin. Chem., 49(1): 32-40). Since 1956, the model is used in cancer and metastasis researches. The model has been started to be used in angiogenesis studies by Folkman in 1976. CAM is a non-embryo membrane which is formed by the merger of chorion and allantois as a result of an incubation of four-days. Although it is widely used in embryonic researches, it also has a broad range of usage in cancer and metastasis researches (Ribatti, D., 2010. The inefficacy of antiangiogenic therapies. J. Angiogenes. Res., 2:27. doi: 10.1186/2040-2384-2-27). […] The method is one of the most commonly used methods since it is quick, cheap and semi quantitative and enable scanning of many new agents (Cimpean, A.M., Ribatti, D., Raica, M., 2008. The chick embryo chorioallantoic membrane as a model to study tumor metastasis. Angiogenesis, 11(4): 311-319; Ribatti, D., 2008. Chick embryo chorioallantoic membrane as a useful tool to study angiogenesis. Int. Rev. Cell Mol. Biol., 270: 181-224).
The experiment Protocol which was reported in 1967 by D'Arcy and Howard and in 2002 by Bürgermeister and his colleagues was used (D'Arcy, P.F., Howard, E.M.,1967. A new anti-inflammatory test, utilizing the chorio-allantoic membrane of the chick embryo. Br. J. Pharmacol. Chemother., 29(3): 378-38; Bürgermeister, J., Paper, D.H., Vogl, H., Linhardt, R.J., Franz, G., 2002. LaPSvS1, a (1-->3)-beta-galactan sulfate and its effect on angiogenesis in vivo and in vitro. Carbohydr. Res., 337(16): 1459-1466).
The palladium complex, 5 mg/ml (50 µg /pellet), the standard control agents sodium dodecyl sulfate (SDS), cortisone, prednisone, (±)-thalidomide has been suspended in 2,5 % (w/v) agar at a final concentration of 50 µg /pellet by heating (60 °C<). Then, 10 µl is taken from this suspension and provided to become frozen pellet at room temperature by being applied on stainless steel cylinder supports with a diameter 5 mm. Pellets are applied onto the surface of CAM.
The procedure for CAM experiment is given in Figure 1 (Kiyan, H.T., 2010. Baz ? Hypericum Türlerinin Uçucu Yaǧ Bile ? imleri ve Antianjiyojenik Aktiviteleri, Yüksek Lisans Tezi, Anadolu Üniversitesi, Saǧl ? k Bilimleri Enstitüsü, Farmakognozi Program ? , 19p). Accordingly, fertilized chicken eggs to be used in experiment are incubated at 36,5 °C and in an incubator with 80% relative humidity (climatization cabin) at horizontal position for 72 hours before the experiment. In this period, eggs were carefully upturned time to time. At the end of the incubation period, firstly, from the bottom side of eggs with the help of the sterile injectors, 10-15 ml of albumin (egg white) is slowly removed and then from the top side of eggs (more upright and sharp part), shell and membrane are carefully removed with the help of the forceps (Figure-1, A). Living and developing embryo CAM immediately taken under protection with a stretch film, is waited again at 36,5 °C and in an incubator with 80% relative humidity for another 72 hours (Figure-1, B). When diameter of the CAM is detected to be approximately 2 cm, one piece of freshly prepared sample pellet for each egg is placed into the capillaries on the CAM (Figure-1, C). 15 pellets from each material is applied on CAM of an equal number of eggs and covered with stretch film. Before the evaluations, eggs were incubated for another 24 hours in such a way that pellets are placed in under specified conditions. […]

O=C1CCC(N2C(=O)c3ccccc3C2=O)C(=O)N1 (racemic) [(±)-Thalidomide]
Score (50 µg/pellet): 0.9 ± 0.2
antiangiogenic effect on CAM: strong

C[C@]12CCC(=O)C=C1CC[C@@H]1[C@@H]2C(=O)C[C@@]2(C)[C@H]1CC[C@]2(O)C(=O)CO [Cortisone]
Score (50 µg/pellet): 1.2 ± 0.2
antiangiogenic effect on CAM: very strong

O=C1c2ccccc2S(=O)(=O)[N]1[Pd-2]12[n+]3ccccc3-c3cccc([n+]31)-c1cccc[n+]12 [Palladium complex, [Pd(sac)(terpy)] (sac)•4H2O (sac=saccharinate and terpy=2,2':6',2"-terpyridine)]]
toxic or irritant effect on CAM (50 µg/pellet): no toxic or irritant effect
antiangiogenic effect on CAM: very strong

C[C@]12C=CC(=O)C=C1CC[C@@H]1[C@@H]2C(=O)C[C@@]2(C)[C@H]1CC[C@]2(O)C(=O)CO [Prednisone]
Score (50 µg/pellet): 0.9 ± 0.7
antiangiogenic effect on CAM: strong

CCCCCCCCCCCCOS(=O)(=O)[O-].[Na+] [Sodium dodecyl sulphate (SDS), Sodium dodecyl sulphate]
toxic or irritant effect on CAM (50 µg/pellet): irritant effect
Irritation (%) (CAM, 50 µg/pellet, 24 hours after pellet application): 87 ± 5%
Score (50 µg/pellet): 0.1 ± 0.1
